In publication PMC7743076 (bioRxiv, 2021):
Where a name gives a salt, the structure may show the parent alone. Read-outs that look alike come from different tables or passages of the source.

Experiments:
[1] = system: SARS-2-PV bearing spike from ancestral strain Wuhan-1, entry into 293T-ACE2-TMPRSS2 cells; assay type: cell-based, SARS-CoV-2; conditions: for IC50: read-out: IC50, PV entry efficiency
[2] = cited from earlier work; for pKa: ref published literature and PubChem
[3] = system: authentic SARS-CoV-2 (Wuhan-1) in Vero E6-TMPRSS2 cells; assay type: cell-based
[4] = system: SARS-CoV-2 (isolate USA-WA1/2020 or Wuhan-1); set-up: species or system Syrian hamsters (Mesocricetus auratus); conditions: hamster, in vivo
[5] = system: SARS-CoV-2 (Wuhan-1) infection in Vero E6 cells; assay: Authentic SARS-CoV-2; assay type: cell-based; conditions: preliminary dose ranging
[6] = 120 mg/kg IP, mice; cited from earlier work
[7] = drug with two pKa values printed

## NCCCNCCSP(=O)(O)O [Amifostine]
[1]
  Inhibition of SARS-2-PV entry (in words): did not inhibit virus entry

## CC(C)(S)C(=O)N[C@@H](CS)C(=O)O [Bucillamine]
[2]; [7]
  pKa: 10.2
[2]; thiol pKa
  pKa: 8.4

## N[C@@H](CSCC(=O)O)C(=O)O [Carbocysteine]
[3]
  Virus-induced cytopathic effects (in words): not effective
[1]
  Inhibition of SARS-2-PV entry (in words): did not inhibit virus entry

## NCCS [Cysteamine]
[3]
  Virus-induced cytopathic effects (in words): significantly decreased virus-induced cytopathic effects
[4]
  Alveolar hemorrhage scores: significantly lower than in the control group
  Histopathology scores for mixed cell lung inflammation: significantly lower than in the control group
  Lung weights (normalized to terminal body weights): significantly lower than in the control group
  Lymphocytes in BAL: decreases
  Neutrophils in BAL: decreases
  Total cell counts in BAL: lower than in control treated animals
  Total protein in BAL: lower
  Viral N2 gene transcripts in lung tissue: not significantly lower than in controls
[2]; thiol pKa
  pKa: 8.2
[5]
  Virus-induced cytopathic effects (in words): very effective at decreasing virus-induced cytopathic effects
[1]
  IC50: ~1000 µM

## O=S(=O)(O)CCS [Mesna, 2-mercaptoethane sulfonate, sodium salt]
[2]; thiol pKa
  pKa: > 9

## O=C(O)[C@@H](S)[C@@H](S)C(=O)O [Succimer, Dimercaptosuccinic acid]
[2]; [7]
  pKa: 10.8
[2]; thiol pKa
  pKa: 8.9

## CO[C@H]1O[C@H](CS)[C@H](O)[C@H](O)[C@H]1O [TDG, methyl 6-thio-6-deoxy-α-D-galactopyranoside]
[2]; TDG, thiol pKa, reported, reference not given
  reported pKa: 9.6

## NCCCNCCS [WR-1065]
[5]
  Virus-induced cytopathic effects (in words): very effective at decreasing virus-induced cytopathic effects
[1]
  IC50: ~1000 µM

## Cl.NCCS [cysteamine hydrochloride]
[6]
  Peak plasma concentration: 0.6 mM
  Time of peak plasma concentration after administration: ≤ 5 min
